Measurements taken from PMC7412561, “Conjugates of Chitosan and Calcium Alginate with Oligoproline and Oligohydroxyproline Derivatives for Potential Use in Regenerative Medicine” (Materials, 2020).
Non-standard residues stand in square brackets, D forms with d. Hyp = O=C(O)[C@@H]1C[C@@H](O)CN1

tested on: endothelial cell line EA.hy 926; assay: MTT test (cell metabolic activity / cytotoxicity); type: cell-based; conditions: EA.h 926 cells incubated with peptide for 1 day and for 7 days; concentration range 10 μM to 10 mM; compared with Control− (medium only); five replicates, average
Experimental: The endothelial cell line EA.hy 926 (ATCC, Manassas, VA, USA) was used. The MTT test was performed using endothelial cells of the EA.hy 926 line. The extracts (2 mg/mL) were incubated in DMEM (Corning) for 48 h at 37 °C. Cells were seeded into a 96-well plate with 1 × 10^4 cells per well and grown under standard conditions (37 °C, 5% CO2 in humid air). The next day, the medium was replaced with extracts. After 24 h of treatment, the culture medium was removed and replaced with the MTT solution (1 mg/mL, Sigma Aldrich, Poznan, Poland) and incubated for 2 h in an incubator. The MTT solution was then decanted and 100 µL of isopropanol (Sigma Aldrich, Poznan, Poland) was added to each well. Absorbance was measured at 570 nm and 650 nm for the reference using a microplate reader (Victor X4 Perkin Elmer, PerkinElmer, Inc. Waltham, MA, USA). Cells cultured for 48 h in DMEM were used as a negative control. As a positive control were used cells incubated for 24 h, followed by the addition of DMSO, which were then cultured for another 24 h. Three samples of each type were tested and the results were presented as a percentage of the negative control with the standard deviation. Statistical significance was assessed using one-way ANOVA analysis of variance. Values for which the value **p < 0.001, ** p < 0.01, *p < 0.05 were considered statistically significant.
All the peptides were also assessed in terms of their cytotoxicity against the endothelial cell line EA.h 926. No cytotoxicity was observed (Figure 6) both for incubating cells in the presence of peptides 1–5 for 1 day (Figure 6a) and for 7 days (Figure 6b). Cells cultured in medium without the addition of any substances or harmful agents were used as the Control^− (K^−), while cells treated with DMSO on the second day of incubation were used as the Control^+ (K^+). The dimethyl sulfoxide (DMSO) was added to a final concentration of 5%. An MTT test was used to assess the cytotoxicity of peptides 1–5. […] The tests were performed in the concentration range of 10 μM and 10 mM.
Figure 6 Results of cell metabolic activity by using 3-(4,5-dimethylthiazol-2-yl)-2,5-diphenyltetrazolium bromide (MTT test) of the endothelial cell line EA.h 926 cultured in the presence of peptides 1–5, panel (a)—cells incubated in the presence of peptides for 1 day, panel (b)—cells incubated in the presence of peptides for 7 days. Cytotoxicity tests were performed in five replicates. The presented results are average values. Statistical significance was assessed using one-way ANOVA analysis of variance. Values for which the value **p < 0.001, ** p < 0.01, *p < 0.05 were considered statistically significant (see Supplementary Materials, Figure S1).
In the final stage of the research, we studied the effects of covalently linked conjugates of peptides 2‒5 with chitosan and alginate (Figure 10) on the endothelial cell line EA.hy 926. Experiments were performed for incubation of cells for 1 day (Figure 10a) and 7 days (Figure 10b) to check the effect of alginate and chitosan conjugates with peptides 2‒5 both in the short and long term, which is important from the point of view of the usefulness of materials used in regenerative medicine. As the Control^‒ (K^‒) were again used cells cultured in the medium without the addition of any substances or any harmful factors, while as the Control^+ (K^+) were used cell cultures killed by adding DMSO on the second day of incubation. DMSO was added to give a 5% final concentration in the culture medium. Unmodified chitosan and calcium alginate were also studied. […] Cell viability relative to the […] was reduced by more than 75%. The adverse effect of calcium alginate on the endothelial cell line EA.hy 926 may result from the exchange of Ca^2+ ions from the polysaccharide matrix for monovalent Na^+ and/or K^+ ions, causing the release of large amounts of Ca^2+ ions into the culture medium. This in turn may adversely affect the endothelial cells. […]

| Substance | cytotoxic effect of peptides (MTT test) |
| --- | --- |
| H-(Hyp)6-OH [Peptide 4] | No cytotoxic effect |
| H-(Hyp)9-OH [Peptide 5] | No cytotoxic effect |
| H-(Pro)6-OH [Peptide 2] | No cytotoxic effect |
| H-(Pro)9-OH [Peptide 3] | No cytotoxic effect |
| H-G[Hyp]PA[Hyp]P-OH (SMILES C[C@H](NC(=O)[C@@H]1CCCN1C(=O)[C@@H]1C[C@@H](O)CN1C(=O)CN)C(=O)N1C[C@H](O)C[C@H]1C(=O)N1CCC[C@H]1C(=O)O) [Peptide 1, model collagen fragment, reference compound] | No cytotoxic effect |

same assay, conditions: EA.h 926 cells; 10 mM peptide

| Substance | cytotoxicity at the highest tested concentration (MTT) |
| --- | --- |
| H-(Pro)9-OH [Peptide 3] | comparable toxicity to that at 100 μM |
